# In US10753947B2, “Methods for screening voltage-gated proteins” (D.E. Shaw Research, LLC, priority 2012, dated 2020):
# Where a chain is given by its changes, count along the chain named. Like-named read-outs stand apart in the source and are kept apart here.
# Experiments:
# [1] = molecular target: T1, Shaker R362S with alpha pore open (R1S) (Drosophila melanogaster, UniProt P08510, DUP563-563/L584V/Q583H/R362S); test: Omega currents (Iω) of Shaker R1S in Xenopus oocytes, two electrode voltage-clamp; format: cell-based; conditions: 30, 100 and 300 μM La3+; test pulses +60 mV to -300 mV, holding -50 mV
# T1 construct: expressed in transfected cells; host or cells: Xenopus oocytes injected with cRNA (vector pBSTA)
# Excerpt: (§1) The coding cDNAs of Shaker “wild-type” (hereinafter WT) base construct (Shaker H4, with intact inactivation), Shaker R362S with alpha pore open (hereinafter R1S) and Shaker with the alpha pore closed by mutation W434F (herein after R1S/W434F) were cloned into a high expression vector pBSTA. The C-terminus of all constructs was tagged with eGFP. Transcripted cRNA was produced using the mMessage mMachine kit (Ambion Inc.).
# (§2) Two to four days past injection of cRNA into stage V-VI Xenopus oocytes (NASCO), omega currents (Iω) and currents through the alpha pore (Iα) were recorded with the two electrode voltage-clamp technique making use of a TURBO TEC-05× amplifier (npi electronic GmbH). Currents were filtered at 10 kHz and sampled at 20 kHz. The bath solution contained (in mM): NaCl 96, KCl 2, CaCl2 1, MgCl2 1 and HEPES 5 (pH 7.5). Voltage-recording and current-injecting microelectrodes were filled with 3 M KCl and pulled to have resistances between 0.2 and 1 MΩ (see Stork et al., 2007). The pClamp software package v.10.1 (Molecular Devices, Inc.) was used for data acquisition and analysis.
# (§3) Pulses (20 ms) from +60 to ˜300 mV were applied in 20 mV steps at 1 Hz from a holding potential of either −80 mV (WT, R1S/W434F) or ˜50 mV (R1S) (see FIG. 34B) to measure omega currents (Iω) without leak subtraction. […]
# [2] = molecular target: T2, Shaker R1S/W434F (alpha pore closed) (Drosophila melanogaster, UniProt P08510, DUP563-563/L584V/Q583H/R362S/W434F); test: Omega currents (Iω) of Shaker R1S/W434F in Xenopus oocytes, two electrode voltage-clamp; format: cell-based; conditions: 100 μM La3+, steps from -80 mV to -200 mV, 20 ms pulses at 1 Hz
# T2 construct: expressed in transfected cells; host or cells: Xenopus oocytes injected with cRNA (vector pBSTA)
# Excerpt: as §1, §2, §3
# [3] = system: Kv2.1 R293S/R294S/R300S (R-1S/R0S/R2S); test: Omega currents (Iω) of Kv2.1 R-1S/R0S/R2S in Xenopus oocytes, two electrode voltage-clamp; format: cell-based, human
# Excerpt: The coding cDNAs of KV2.1 “wild-type” (hereinafter WT) base construct (hKv2.1-m7-c3 is human Kv2.1, residues 1-858, mutated to confer AgTx2 sensitivity and to remove extracellular cysteine residues) was synthesized (Entelchon GmbH) and cloned into the high expression vector pBSTA.
# Mutations Kv2.1 R294N (hereinafter R0N), Kv2.1 R300S (hereinafter R2S), Kv2.1 R294C/R300S (hereinafter R0C/R2S), Kv2.1 R293S/R294S (hereinafter R-1S/R0S), Kv2.1 R293S/R294C (hereinafter R-1S/R0C), Kv2.1 R293S/R294S/R300S (hereinafter R-1S/R0S/R2S), Kv2.1 R293S/R294C/R300S (hereinafter R-1S/R0C/R2S) were introduced using the QuikChange® Lightning Site-Directed Mutagenesis Kit (Stratagene) with mutagenic primers according to the manufacturer's instructions. All constructs were checked by restriction site mapping and sequencing.
# as §2, with “Transcripted cRNA was produced using the mMessage mMachine kit (Ambion Inc.). Two” for “Two”, “(NASCO) potassium” for “(NASCO), omega currents (Iω) and”
# Recording of alpha currents (Iα): Pulses of 100 ms were applied from ˜60 to +60 mV in 10 mV steps at 1 Hz from a holding potential of ˜80 mV to the Kv2.1 channel constructs to measure alpha currents (Iα). Passive leak currents were subtracted online using a P/4 procedure: pClamp software generates a series of scaled-down replica sweeps of the main stimulus waveform. […] The cell's response to the subsweeps is used to calculate the degree of passive cellular current leak. This is then subtracted from acquired data on the associated input signal. Recording of omega currents (Iω): Pulses of 10 ms were applied from a holding potential of ˜80 to ˜300 mV in 20 mV steps at 0.3 Hz to the Kv2.1 channel constructs. Iω were recorded without leak subtraction.
# AgTx2 (Sigma Aldrich) was reconstituted according to manufacturer's instructions with 10 mM Tris, pH 7.5, containing 100 mM sodium chloride, 0.1% bovine serum albumin, and 1 mM EDTA. LaCl3 was from Sigma Aldrich; MTSEA, MTSES and MTSET were from Biotium.
# La^3+, AgTx2, MTSEA, MTSES and MTSET and were applied to Xenopus oocytes by means of a fast perfusion technique (ScreeningTool as described by Baburin et al., 2006). Origin software v.7.0 (OriginLab Corp.) was employed for data analysis. Inhibition of inward currents was defined as 1−Iω,drug/Iω,control, where Iω,drug is the current response in the presence of a given concentration of lanthanum (La^3+) and Iω, control is the control current through the omega pore. The concentration-inhibition curve was fitted using the Hill equation: Iω,drug/Iω,control=A+[…] where IC50 is the concentration at which Iω inhibition is half-maximal, C is the applied La^3+ concentration, A is the fraction of Iω current that blocked and nH is the Hill coefficient. Data are given as mean±SE (n=number of experiments).
# Kv1.6 = Kv1.6 (Homo sapiens, UniProt P17658); conditions: Table 4; read-out: IC50 Others: Kv1.6; cited from earlier work
# KCa3.1 = KCa3.1 (Homo sapiens, UniProt O15554); conditions: Table 4; cited from earlier work
# Kv1.5 = Kv1.5 (Homo sapiens, UniProt P22460); conditions: Table 4; cited from earlier work
# Kv1.4 = Kv1.4 (Homo sapiens, UniProt P22459); conditions: Table 4; read-out: IC50 Others: Kv1.4; cited from earlier work
# Kv1.2 = Kv1.2 (Homo sapiens, UniProt P16389); conditions: cited from earlier work
# Kv1.1 = Kv1.1 (Homo sapiens, UniProt Q09470); conditions: cited from earlier work
# Shaker = Shaker (Drosophila melanogaster, UniProt P08510, DUP563-563/L584V/Q583H); conditions: Table 5, cited from earlier work
# Kv1.3 = Kv1.3 (Homo sapiens, UniProt P22001); conditions: cited from earlier work
# Kv2.1 = molecular target: T3, Kv2.1 (Homo sapiens, UniProt Q14721); conditions: Table 5; read-out: IC50, channel Kv2.1; cited from earlier work
# T3 sequence (Q14721 1-858): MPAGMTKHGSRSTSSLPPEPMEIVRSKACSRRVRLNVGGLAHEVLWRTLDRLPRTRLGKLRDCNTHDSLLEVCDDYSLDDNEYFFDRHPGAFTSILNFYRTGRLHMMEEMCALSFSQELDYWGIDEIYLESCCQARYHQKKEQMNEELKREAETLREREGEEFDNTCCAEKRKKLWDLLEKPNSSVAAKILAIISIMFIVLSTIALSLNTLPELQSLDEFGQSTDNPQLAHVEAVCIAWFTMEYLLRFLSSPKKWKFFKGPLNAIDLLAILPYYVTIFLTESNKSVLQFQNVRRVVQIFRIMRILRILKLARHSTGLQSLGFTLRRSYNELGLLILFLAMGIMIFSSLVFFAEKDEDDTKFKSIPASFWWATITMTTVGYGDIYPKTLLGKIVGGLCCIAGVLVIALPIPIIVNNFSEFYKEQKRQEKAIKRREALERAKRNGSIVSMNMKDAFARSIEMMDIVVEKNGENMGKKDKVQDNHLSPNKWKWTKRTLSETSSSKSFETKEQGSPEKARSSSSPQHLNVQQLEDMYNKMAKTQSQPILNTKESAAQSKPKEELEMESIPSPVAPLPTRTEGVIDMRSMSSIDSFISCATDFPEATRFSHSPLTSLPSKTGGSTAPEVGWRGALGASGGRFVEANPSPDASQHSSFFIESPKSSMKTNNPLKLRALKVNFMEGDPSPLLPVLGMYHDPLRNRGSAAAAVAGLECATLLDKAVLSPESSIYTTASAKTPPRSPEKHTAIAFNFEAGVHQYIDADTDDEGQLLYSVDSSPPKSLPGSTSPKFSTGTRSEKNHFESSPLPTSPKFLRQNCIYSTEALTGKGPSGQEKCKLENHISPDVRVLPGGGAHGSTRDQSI
# [4] = molecular target: T4, Kv2.1 T359S K360G A366D S367A I383M Y384T K386V (Homo sapiens, UniProt Q14721, A366D/I383M/K360G/K386V/S367A/T359S/Y384T); conditions: Table 5; read-out: IC50, channel Kv2.1 T359S K360G A366D S367A I383M Y384T K386V; cited from earlier work
# T4 sequence (Q14721 1-858 T359S/K360G/A366D/S367A/I383M/Y384T/K386V): T3 sequence (Q14721 1-858) with T359S, K360G, A366D, S367A, I383M, Y384T, K386V
# [5] = Table 5, read-out: IC50, channel Kv1.3
# [6] = Table 5, read-out: IC50, channel Kv1.2
# [7] = Table 5, read-out: IC50, channel Kv1.1
# Sequence of Kv1.1 (Q09470 whole entry): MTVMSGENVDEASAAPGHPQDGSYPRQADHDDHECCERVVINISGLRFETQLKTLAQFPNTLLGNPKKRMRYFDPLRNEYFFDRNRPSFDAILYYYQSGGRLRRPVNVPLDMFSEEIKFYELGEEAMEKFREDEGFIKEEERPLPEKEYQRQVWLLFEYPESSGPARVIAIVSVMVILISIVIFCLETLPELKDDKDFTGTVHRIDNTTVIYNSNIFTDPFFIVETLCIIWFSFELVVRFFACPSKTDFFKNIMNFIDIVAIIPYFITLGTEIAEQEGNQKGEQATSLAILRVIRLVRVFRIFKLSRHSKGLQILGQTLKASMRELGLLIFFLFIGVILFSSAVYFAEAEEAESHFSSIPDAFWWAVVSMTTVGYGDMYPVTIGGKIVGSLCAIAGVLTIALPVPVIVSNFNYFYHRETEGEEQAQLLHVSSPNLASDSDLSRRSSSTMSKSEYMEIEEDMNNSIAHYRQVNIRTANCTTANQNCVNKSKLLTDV
# Sequence of Kv1.3 (P22001 whole entry): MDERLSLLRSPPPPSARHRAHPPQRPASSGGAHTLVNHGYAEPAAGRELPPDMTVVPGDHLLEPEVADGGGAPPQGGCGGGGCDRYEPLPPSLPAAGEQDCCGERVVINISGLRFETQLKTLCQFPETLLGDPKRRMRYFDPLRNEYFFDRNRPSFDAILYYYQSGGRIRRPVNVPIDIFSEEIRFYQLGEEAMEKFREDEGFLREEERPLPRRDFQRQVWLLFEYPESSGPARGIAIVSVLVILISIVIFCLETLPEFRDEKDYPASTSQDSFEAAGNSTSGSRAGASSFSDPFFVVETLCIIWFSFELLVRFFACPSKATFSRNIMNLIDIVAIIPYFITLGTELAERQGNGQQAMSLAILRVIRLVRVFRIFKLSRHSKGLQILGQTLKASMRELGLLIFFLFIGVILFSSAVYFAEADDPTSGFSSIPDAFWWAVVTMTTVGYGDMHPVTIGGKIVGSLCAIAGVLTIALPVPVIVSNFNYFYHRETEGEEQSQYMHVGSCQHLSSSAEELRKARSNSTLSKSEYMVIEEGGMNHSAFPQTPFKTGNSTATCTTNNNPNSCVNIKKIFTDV
# Sequence of Kv1.2 (P16389 whole entry): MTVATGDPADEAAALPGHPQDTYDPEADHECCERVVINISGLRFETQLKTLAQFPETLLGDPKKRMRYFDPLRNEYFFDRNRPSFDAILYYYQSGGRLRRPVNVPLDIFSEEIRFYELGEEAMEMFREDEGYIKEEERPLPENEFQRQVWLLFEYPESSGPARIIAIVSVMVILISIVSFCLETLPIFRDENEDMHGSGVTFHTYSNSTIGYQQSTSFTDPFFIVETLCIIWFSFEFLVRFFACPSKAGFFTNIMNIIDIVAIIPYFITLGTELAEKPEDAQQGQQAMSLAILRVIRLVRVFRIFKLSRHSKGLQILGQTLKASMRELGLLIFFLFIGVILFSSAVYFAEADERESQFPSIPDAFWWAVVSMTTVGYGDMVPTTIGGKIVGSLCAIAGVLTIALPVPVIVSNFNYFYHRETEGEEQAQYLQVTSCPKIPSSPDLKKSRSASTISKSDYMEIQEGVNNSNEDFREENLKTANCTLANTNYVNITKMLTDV
# T1 sequence (P08510 with tags, fused parts or gaps R362S/DUP563-563/Q583H/L584V): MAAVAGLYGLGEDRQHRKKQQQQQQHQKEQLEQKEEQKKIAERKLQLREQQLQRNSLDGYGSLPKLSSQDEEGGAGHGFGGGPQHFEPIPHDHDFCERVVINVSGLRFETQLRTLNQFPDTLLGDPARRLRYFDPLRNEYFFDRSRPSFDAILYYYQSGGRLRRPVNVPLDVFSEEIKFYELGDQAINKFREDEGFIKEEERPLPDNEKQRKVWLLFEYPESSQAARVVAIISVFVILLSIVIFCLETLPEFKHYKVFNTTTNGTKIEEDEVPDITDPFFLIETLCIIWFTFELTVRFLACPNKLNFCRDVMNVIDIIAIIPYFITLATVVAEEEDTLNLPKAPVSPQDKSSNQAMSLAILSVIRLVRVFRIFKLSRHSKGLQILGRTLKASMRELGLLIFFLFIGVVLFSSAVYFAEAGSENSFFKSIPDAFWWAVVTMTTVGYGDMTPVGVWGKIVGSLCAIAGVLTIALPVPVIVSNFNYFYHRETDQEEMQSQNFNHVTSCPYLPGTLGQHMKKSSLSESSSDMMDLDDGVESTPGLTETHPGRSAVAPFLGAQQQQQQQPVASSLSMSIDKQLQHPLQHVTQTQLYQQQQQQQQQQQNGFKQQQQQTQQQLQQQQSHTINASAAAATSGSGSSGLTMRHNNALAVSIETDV
# Sequence of Kv1.6 (P17658 whole entry): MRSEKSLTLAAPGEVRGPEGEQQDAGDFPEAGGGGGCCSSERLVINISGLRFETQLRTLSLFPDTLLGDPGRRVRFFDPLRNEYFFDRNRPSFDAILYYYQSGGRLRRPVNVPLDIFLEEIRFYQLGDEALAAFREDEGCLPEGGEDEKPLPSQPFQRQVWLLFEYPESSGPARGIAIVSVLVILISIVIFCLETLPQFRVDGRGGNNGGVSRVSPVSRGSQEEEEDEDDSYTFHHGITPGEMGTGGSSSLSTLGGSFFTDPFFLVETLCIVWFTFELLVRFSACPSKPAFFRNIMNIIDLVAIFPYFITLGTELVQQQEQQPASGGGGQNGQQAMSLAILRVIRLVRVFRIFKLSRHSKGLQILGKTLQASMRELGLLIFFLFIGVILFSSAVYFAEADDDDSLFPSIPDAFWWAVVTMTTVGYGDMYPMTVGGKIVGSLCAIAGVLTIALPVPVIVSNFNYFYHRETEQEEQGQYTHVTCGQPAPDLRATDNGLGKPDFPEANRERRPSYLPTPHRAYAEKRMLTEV
# T2 sequence (P08510 with tags, fused parts or gaps R362S/W434F/DUP563-563/Q583H/L584V): as the sequence (P08510 with tags, fused parts or gaps R362S/DUP563-563/Q583H/L584V) above, with W434F counted along it
# Sequence of Shaker (P08510 with tags, fused parts or gaps DUP563-563/Q583H/L584V): as the sequence (P08510 with tags, fused parts or gaps R362S/DUP563-563/Q583H/L584V) above, with S362R counted along it
# Sequence of Kv1.5 (P22460 whole entry): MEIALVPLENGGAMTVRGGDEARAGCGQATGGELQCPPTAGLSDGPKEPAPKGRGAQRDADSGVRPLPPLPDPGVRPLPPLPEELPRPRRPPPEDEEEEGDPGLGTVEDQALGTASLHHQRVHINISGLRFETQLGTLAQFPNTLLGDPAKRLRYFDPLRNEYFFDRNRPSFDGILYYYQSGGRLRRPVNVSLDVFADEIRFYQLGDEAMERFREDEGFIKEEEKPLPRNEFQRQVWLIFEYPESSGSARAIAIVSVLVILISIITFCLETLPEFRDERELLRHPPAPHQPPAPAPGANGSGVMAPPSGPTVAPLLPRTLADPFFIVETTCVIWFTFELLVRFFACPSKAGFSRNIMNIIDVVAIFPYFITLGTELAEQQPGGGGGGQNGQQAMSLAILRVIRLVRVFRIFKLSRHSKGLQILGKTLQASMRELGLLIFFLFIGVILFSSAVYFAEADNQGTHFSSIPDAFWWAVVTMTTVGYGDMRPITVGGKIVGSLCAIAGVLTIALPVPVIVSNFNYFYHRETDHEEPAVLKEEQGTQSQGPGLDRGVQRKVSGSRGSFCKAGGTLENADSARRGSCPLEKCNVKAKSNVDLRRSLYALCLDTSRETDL
# Sequence of Kv1.4 (P22459 whole entry): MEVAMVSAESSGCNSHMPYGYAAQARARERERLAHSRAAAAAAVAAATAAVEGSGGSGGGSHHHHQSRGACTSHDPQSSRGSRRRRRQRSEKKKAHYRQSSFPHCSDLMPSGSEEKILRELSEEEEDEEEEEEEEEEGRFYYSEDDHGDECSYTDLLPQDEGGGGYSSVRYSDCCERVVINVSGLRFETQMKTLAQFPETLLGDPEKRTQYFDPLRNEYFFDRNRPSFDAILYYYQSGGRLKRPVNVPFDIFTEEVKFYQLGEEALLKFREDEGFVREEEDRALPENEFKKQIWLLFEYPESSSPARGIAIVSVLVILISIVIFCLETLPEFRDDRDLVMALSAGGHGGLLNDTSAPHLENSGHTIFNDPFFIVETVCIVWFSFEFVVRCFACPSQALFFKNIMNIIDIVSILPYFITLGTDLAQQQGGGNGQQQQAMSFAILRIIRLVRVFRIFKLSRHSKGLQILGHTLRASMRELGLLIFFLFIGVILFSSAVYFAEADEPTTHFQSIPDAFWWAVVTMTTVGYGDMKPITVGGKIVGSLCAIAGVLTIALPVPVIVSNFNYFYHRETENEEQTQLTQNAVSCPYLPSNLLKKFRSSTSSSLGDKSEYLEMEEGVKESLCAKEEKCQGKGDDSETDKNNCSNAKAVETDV
# Sequence of KCa3.1 (O15554 whole entry): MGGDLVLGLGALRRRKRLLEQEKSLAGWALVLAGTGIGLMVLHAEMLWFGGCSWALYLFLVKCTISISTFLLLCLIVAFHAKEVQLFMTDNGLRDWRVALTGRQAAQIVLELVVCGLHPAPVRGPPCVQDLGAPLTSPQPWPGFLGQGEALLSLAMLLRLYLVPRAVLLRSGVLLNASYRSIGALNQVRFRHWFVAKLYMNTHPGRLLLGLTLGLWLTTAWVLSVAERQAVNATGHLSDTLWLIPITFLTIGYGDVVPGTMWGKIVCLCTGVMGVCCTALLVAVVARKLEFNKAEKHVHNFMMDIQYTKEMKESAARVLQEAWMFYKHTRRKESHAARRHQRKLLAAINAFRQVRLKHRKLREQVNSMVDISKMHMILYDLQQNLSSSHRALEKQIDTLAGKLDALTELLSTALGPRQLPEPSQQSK
compound,measurement,setting,value
"O.O.O.O.O.O.O.[Cl-].[Cl-].[Cl-].[La+3] [La3+, Lanthanum(III) chloride heptahydrate]",Block of omega current (Iω) of R1S Shaker,[1],blocked in a concentration-dependent manner
same,Block of Iω during the first pulse,[2],31.8±3.6%
same,Block of omega currents at steady state,[2]; 5 oocytes,51.5±5.9%
same,Block of inward currents at negative potentials (Iω),[3]; 30 μM to 10 mM La3+,blocked
same,Hill coefficient nH,"[3]; inward currents after 5 ms at -300 mV, Hill fit",0.8±0.1
O=c1ccc2c(OCCCCOc3ccccc3)c3ccoc3cc2o1 [PAP-1],IC50,Kv1.6,31000 nM
same,IC50,KCa3.1,10000 nM
same,IC50,Kv1.5,45 nM
same,IC50,Kv1.4,170 nM
same,IC50,"Kv1.2; Table 4, read-out: IC50 Kv1.2",250 nM
same,IC50,"Kv1.1; Table 4, read-out: IC50 Kv1.1",65 nM
O=c1ccc2c(OCCCCc3ccccc3)c3ccoc3cc2o1 [Psora-4],IC50,Kv1.6,62 nM
Charybdotoxin [Charybdotoxin (ChTX)],IC50,"Shaker; read-out: IC50, channel Shaker",227 nM
same,IC50,"Kv1.3; Table 3, read-out: IC50 Values of Kv1.3 ion channel modulating agent",0.19 nM
same,IC50,Kv1.3; [5],0.19 nM
same,IC50,Kv1.2; [6],14 nM
same,IC50,Kv2.1,> 2000 nM
same,IC50,Kv1.1; [7],1500 nM
hanatoxin [HaTx],"IC50, channel Shaker",Shaker; result in words,Weak
same,IC50,Kv1.3; [5],> 500 nM
same,IC50,Kv1.2; [6],> 2000 nM
same,IC50,Kv2.1,107 nM
same,IC50,[4],102 nM
same,IC50,Kv1.1; [7],> 500 nM
